In BigSolDB 2.1:

Cc1ccccc1S(N)(=O)=O
Details | solubility (mole fraction)
in acetone, 273.15 K | 0.0728
in acetone, 279.15 K | 0.0787
in acetone, 283.75 K | 0.0844
in acetone, 289.15 K | 0.091
in acetone, 298.95 K | 0.105
in acetone, 303.25 K | 0.113
in acetone, 308.65 K | 0.124
in acetone, 313.15 K | 0.134
in acetone, 318.15 K | 0.146
in acetone, 323.15 K | 0.158
in acetonitrile, 273.15 K | 0.0167
in acetonitrile, 279.15 K | 0.0196
in acetonitrile, 283.95 K | 0.022
in acetonitrile, 293.35 K | 0.0297
in acetonitrile, 298.95 K | 0.0347
in acetonitrile, 303.25 K | 0.0401
in acetonitrile, 308.95 K | 0.0476
in acetonitrile, 313.15 K | 0.0533
in acetonitrile, 319.15 K | 0.0634
in acetonitrile, 323.85 K | 0.0723
in cyclohexanone, 273.15 K | 0.0803
in cyclohexanone, 279.15 K | 0.0861
in cyclohexanone, 283.95 K | 0.0927
in cyclohexanone, 289.15 K | 0.0992
in cyclohexanone, 293.35 K | 0.105
in cyclohexanone, 298.95 K | 0.114
in cyclohexanone, 303.25 K | 0.122
in cyclohexanone, 308.95 K | 0.133
in cyclohexanone, 313.15 K | 0.143
in cyclohexanone, 319.15 K | 0.156
in cyclohexanone, 323.85 K | 0.168
in cyclopentanone, 273.15 K | 0.098
in cyclopentanone, 279.15 K | 0.104
in cyclopentanone, 283.95 K | 0.111
in cyclopentanone, 289.15 K | 0.118
in cyclopentanone, 293.35 K | 0.124
in cyclopentanone, 298.95 K | 0.133
in cyclopentanone, 303.25 K | 0.142
in cyclopentanone, 308.95 K | 0.152
in cyclopentanone, 313.15 K | 0.16
in cyclopentanone, 319.15 K | 0.175
in cyclopentanone, 323.85 K | 0.187
in dichloromethane, 273.15 K | 0.00161
in dichloromethane, 279.15 K | 0.00199
in dichloromethane, 283.95 K | 0.00233
in dichloromethane, 289.15 K | 0.00304
in dichloromethane, 293.35 K | 0.00365
in dichloromethane, 298.95 K | 0.00463
in dichloromethane, 303.25 K | 0.00547
in dichloromethane, 308.95 K | 0.00697
in dichloromethane, 312.15 K | 0.00785
in ethanol, 273.15 K | 0.00764
in ethanol, 279.15 K | 0.00971
in ethanol, 283.75 K | 0.0116
in ethanol, 289.15 K | 0.0147
in ethanol, 298.95 K | 0.0196
in ethanol, 303.25 K | 0.0226
in ethanol, 308.65 K | 0.0275
in ethanol, 313.15 K | 0.0315
in ethanol, 318.15 K | 0.0374
in ethanol, 323.15 K | 0.0439
in ethyl acetate, 273.15 K | 0.0221
in ethyl acetate, 279.15 K | 0.0248
in ethyl acetate, 283.75 K | 0.0278
in ethyl acetate, 289.15 K | 0.0307
in ethyl acetate, 298.95 K | 0.0377
in ethyl acetate, 303.25 K | 0.0416
in ethyl acetate, 308.65 K | 0.0471
in ethyl acetate, 313.15 K | 0.0518
in ethyl acetate, 318.15 K | 0.0578
in ethyl acetate, 323.15 K | 0.0643
in ethyl formate, 273.15 K | 0.013
in ethyl formate, 279.15 K | 0.0146
in ethyl formate, 283.95 K | 0.0165
in ethyl formate, 289.15 K | 0.0185
in ethyl formate, 293.35 K | 0.0207
in ethyl formate, 298.95 K | 0.0239
in ethyl formate, 303.25 K | 0.0273
in ethyl formate, 308.95 K | 0.0316
in ethyl formate, 313.15 K | 0.0354
in ethyl formate, 319.15 K | 0.0408
in ethyl formate, 323.85 K | 0.0461
in isobutanol, 273.15 K | 0.00205
in isobutanol, 279.15 K | 0.00284
in isobutanol, 283.75 K | 0.00363
in isobutanol, 289.15 K | 0.00476
in isobutanol, 298.95 K | 0.00768
in isobutanol, 303.25 K | 0.00934
in isobutanol, 308.65 K | 0.012
in isobutanol, 313.15 K | 0.0144
in isobutanol, 318.15 K | 0.0178
in isobutanol, 323.15 K | 0.0215
in isopentanol, 273.15 K | 0.00248
in isopentanol, 279.15 K | 0.00333
in isopentanol, 283.95 K | 0.00419
in isopentanol, 289.15 K | 0.00534
in isopentanol, 293.35 K | 0.00642
in isopentanol, 298.95 K | 0.00805
in isopentanol, 303.25 K | 0.00978
in isopentanol, 308.95 K | 0.0125
in isopentanol, 313.15 K | 0.0144
in isopentanol, 319.15 K | 0.0183
in isopentanol, 323.85 K | 0.0214
in isopropanol, 273.15 K | 0.00343
in isopropanol, 279.15 K | 0.00464
in isopropanol, 283.75 K | 0.00581
in isopropanol, 289.15 K | 0.00756
in isopropanol, 298.95 K | 0.0115
in isopropanol, 303.25 K | 0.0137
in isopropanol, 308.65 K | 0.0175
in isopropanol, 313.15 K | 0.0208
in isopropanol, 318.15 K | 0.0252
in isopropanol, 323.15 K | 0.0304
in methanol, 273.15 K | 0.0128
in methanol, 279.15 K | 0.016
in methanol, 283.75 K | 0.0189
in methanol, 289.15 K | 0.0233
in methanol, 298.95 K | 0.0311
in methanol, 303.25 K | 0.0355
in methanol, 308.65 K | 0.0422
in methanol, 313.15 K | 0.0489
in methanol, 318.15 K | 0.0567
in methanol, 323.15 K | 0.0658
in methyl acetate, 273.15 K | 0.027
in methyl acetate, 279.15 K | 0.0303
in methyl acetate, 283.95 K | 0.0337
in methyl acetate, 289.15 K | 0.0374
in methyl acetate, 293.35 K | 0.0405
in methyl acetate, 298.95 K | 0.046
in methyl acetate, 303.25 K | 0.0513
in methyl acetate, 308.95 K | 0.058
in methyl acetate, 313.15 K | 0.0637
in methyl acetate, 319.15 K | 0.0731
in methyl acetate, 323.85 K | 0.0809
in n-butanol, 273.15 K | 0.00341
in n-butanol, 279.15 K | 0.00451
in n-butanol, 283.75 K | 0.00556
in n-butanol, 289.15 K | 0.00731
in n-butanol, 298.95 K | 0.0104
in n-butanol, 303.25 K | 0.0123
in n-butanol, 308.65 K | 0.0154
in n-butanol, 313.15 K | 0.0181
in n-butanol, 318.15 K | 0.0218
in n-butanol, 323.15 K | 0.0262
in n-pentanol, 273.15 K | 0.0027
in n-pentanol, 279.15 K | 0.00363
in n-pentanol, 283.95 K | 0.00456
in n-pentanol, 289.15 K | 0.00568
in n-pentanol, 293.35 K | 0.00705
in n-pentanol, 298.95 K | 0.00875
in n-pentanol, 303.25 K | 0.0108
in n-pentanol, 308.95 K | 0.0134
in n-pentanol, 313.15 K | 0.0158
in n-pentanol, 319.15 K | 0.0195
in n-pentanol, 323.85 K | 0.023
in n-propanol, 273.15 K | 0.00418
in n-propanol, 279.15 K | 0.0055
in n-propanol, 283.75 K | 0.00674
in n-propanol, 289.15 K | 0.00847
in n-propanol, 298.95 K | 0.0126
in n-propanol, 303.25 K | 0.0148
in n-propanol, 308.65 K | 0.0182
in n-propanol, 313.15 K | 0.0215
in n-propanol, 318.15 K | 0.0257
in n-propanol, 323.15 K | 0.03
